# Like-named read-outs stand apart in the source and are kept apart here.
# Assays:
# Format in all cases: binding
# [1] = target: T1, HeLa cell extract proteins (Homo sapiens, UniProt P25705)
# T1 construct: endogenous in cells; host or cells: HeLa cell extract
# [2] = target: T2, HeLa cell extract proteins (Homo sapiens, UniProt Q9H1A4)
# T2 construct: endogenous in cells; host or cells: HeLa cell extract
# [3] = target: T3, HeLa cell extract proteins (Homo sapiens, UniProt P68366)
# T3 construct: endogenous in cells; host or cells: HeLa cell extract
# [4] = target: T4, HeLa cell extract proteins (Homo sapiens, UniProt Q9P035)
# T4 construct: endogenous in cells; host or cells: HeLa cell extract
# T4 sequence (Q9P035 1-362): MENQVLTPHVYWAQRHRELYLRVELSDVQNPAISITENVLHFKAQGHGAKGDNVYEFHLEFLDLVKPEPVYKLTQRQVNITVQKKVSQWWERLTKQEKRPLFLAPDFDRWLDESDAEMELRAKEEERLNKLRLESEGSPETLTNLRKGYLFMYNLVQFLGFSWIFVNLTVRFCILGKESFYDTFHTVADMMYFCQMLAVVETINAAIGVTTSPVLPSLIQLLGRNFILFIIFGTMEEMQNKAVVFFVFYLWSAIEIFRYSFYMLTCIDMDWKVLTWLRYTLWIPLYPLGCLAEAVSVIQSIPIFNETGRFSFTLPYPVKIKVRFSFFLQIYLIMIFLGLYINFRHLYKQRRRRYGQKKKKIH
# [5] = target: T5, HeLa cell extract proteins (Homo sapiens, UniProt O94822)
# T5 construct: endogenous in cells; host or cells: HeLa cell extract
# [6] = target: T6, HeLa cell extract proteins (Homo sapiens, UniProt P23381)
# T6 construct: endogenous in cells; host or cells: HeLa cell extract
# T6 sequence (P23381 1-471): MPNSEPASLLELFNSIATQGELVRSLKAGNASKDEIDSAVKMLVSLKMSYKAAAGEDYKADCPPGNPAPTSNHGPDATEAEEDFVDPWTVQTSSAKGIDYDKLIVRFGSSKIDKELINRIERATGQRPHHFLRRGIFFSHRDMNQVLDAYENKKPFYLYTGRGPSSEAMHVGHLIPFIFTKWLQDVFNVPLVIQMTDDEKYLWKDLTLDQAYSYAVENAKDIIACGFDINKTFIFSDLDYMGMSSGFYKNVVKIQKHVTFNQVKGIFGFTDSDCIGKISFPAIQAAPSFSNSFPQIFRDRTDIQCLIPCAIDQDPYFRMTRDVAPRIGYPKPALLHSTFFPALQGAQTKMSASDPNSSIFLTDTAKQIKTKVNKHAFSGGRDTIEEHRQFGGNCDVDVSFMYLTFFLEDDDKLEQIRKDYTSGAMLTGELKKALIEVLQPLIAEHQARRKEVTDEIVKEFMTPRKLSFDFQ
# [7] = target: T7, HeLa cell extract proteins (Homo sapiens, UniProt P31040)
# T7 construct: endogenous in cells; host or cells: HeLa cell extract
# [8] = target: T8, HeLa cell extract proteins (Homo sapiens, UniProt O43592)
# T8 construct: endogenous in cells; host or cells: HeLa cell extract
# T8 sequence (O43592 1-962): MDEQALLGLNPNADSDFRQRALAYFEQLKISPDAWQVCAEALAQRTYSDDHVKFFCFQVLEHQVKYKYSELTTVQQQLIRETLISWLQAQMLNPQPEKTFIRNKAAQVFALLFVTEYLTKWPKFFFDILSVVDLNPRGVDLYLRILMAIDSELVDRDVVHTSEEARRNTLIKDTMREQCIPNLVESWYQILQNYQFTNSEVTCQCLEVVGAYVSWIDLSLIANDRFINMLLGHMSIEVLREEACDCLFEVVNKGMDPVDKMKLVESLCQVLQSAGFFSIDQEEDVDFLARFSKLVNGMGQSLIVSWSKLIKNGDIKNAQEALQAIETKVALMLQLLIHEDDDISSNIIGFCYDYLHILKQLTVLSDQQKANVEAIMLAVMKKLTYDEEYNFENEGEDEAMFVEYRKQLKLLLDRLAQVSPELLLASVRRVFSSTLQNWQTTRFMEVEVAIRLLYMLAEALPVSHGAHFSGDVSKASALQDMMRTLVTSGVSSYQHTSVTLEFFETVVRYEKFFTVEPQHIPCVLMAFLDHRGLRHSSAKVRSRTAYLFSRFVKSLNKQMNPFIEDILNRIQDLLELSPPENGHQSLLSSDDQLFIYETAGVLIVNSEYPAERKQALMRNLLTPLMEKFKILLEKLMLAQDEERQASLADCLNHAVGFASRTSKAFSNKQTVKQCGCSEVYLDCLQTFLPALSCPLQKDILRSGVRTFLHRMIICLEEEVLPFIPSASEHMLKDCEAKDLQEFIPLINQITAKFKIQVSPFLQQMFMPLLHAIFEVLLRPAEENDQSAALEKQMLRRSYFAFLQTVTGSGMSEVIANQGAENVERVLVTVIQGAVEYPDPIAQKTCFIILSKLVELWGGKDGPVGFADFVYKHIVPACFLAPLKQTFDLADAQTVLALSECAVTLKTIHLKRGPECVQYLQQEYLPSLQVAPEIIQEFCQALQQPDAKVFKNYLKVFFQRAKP
# [9] = target: T9, HeLa cell extract proteins (Homo sapiens, UniProt Q9NX63)
# T9 construct: endogenous in cells; host or cells: HeLa cell extract
# T9 sequence (Q9NX63 1-227): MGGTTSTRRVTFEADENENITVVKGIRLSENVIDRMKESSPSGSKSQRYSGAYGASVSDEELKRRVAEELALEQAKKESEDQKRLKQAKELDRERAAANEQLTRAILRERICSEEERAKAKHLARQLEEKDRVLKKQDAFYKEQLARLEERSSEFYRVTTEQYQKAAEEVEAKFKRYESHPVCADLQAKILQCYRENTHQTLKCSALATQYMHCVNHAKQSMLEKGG
# [10] = HeLa, protein ANAPC1 (ANAPHASE-PROMOTING COMPLEX SUBUNIT 1)
# T5 sequence (O94822 whole entry): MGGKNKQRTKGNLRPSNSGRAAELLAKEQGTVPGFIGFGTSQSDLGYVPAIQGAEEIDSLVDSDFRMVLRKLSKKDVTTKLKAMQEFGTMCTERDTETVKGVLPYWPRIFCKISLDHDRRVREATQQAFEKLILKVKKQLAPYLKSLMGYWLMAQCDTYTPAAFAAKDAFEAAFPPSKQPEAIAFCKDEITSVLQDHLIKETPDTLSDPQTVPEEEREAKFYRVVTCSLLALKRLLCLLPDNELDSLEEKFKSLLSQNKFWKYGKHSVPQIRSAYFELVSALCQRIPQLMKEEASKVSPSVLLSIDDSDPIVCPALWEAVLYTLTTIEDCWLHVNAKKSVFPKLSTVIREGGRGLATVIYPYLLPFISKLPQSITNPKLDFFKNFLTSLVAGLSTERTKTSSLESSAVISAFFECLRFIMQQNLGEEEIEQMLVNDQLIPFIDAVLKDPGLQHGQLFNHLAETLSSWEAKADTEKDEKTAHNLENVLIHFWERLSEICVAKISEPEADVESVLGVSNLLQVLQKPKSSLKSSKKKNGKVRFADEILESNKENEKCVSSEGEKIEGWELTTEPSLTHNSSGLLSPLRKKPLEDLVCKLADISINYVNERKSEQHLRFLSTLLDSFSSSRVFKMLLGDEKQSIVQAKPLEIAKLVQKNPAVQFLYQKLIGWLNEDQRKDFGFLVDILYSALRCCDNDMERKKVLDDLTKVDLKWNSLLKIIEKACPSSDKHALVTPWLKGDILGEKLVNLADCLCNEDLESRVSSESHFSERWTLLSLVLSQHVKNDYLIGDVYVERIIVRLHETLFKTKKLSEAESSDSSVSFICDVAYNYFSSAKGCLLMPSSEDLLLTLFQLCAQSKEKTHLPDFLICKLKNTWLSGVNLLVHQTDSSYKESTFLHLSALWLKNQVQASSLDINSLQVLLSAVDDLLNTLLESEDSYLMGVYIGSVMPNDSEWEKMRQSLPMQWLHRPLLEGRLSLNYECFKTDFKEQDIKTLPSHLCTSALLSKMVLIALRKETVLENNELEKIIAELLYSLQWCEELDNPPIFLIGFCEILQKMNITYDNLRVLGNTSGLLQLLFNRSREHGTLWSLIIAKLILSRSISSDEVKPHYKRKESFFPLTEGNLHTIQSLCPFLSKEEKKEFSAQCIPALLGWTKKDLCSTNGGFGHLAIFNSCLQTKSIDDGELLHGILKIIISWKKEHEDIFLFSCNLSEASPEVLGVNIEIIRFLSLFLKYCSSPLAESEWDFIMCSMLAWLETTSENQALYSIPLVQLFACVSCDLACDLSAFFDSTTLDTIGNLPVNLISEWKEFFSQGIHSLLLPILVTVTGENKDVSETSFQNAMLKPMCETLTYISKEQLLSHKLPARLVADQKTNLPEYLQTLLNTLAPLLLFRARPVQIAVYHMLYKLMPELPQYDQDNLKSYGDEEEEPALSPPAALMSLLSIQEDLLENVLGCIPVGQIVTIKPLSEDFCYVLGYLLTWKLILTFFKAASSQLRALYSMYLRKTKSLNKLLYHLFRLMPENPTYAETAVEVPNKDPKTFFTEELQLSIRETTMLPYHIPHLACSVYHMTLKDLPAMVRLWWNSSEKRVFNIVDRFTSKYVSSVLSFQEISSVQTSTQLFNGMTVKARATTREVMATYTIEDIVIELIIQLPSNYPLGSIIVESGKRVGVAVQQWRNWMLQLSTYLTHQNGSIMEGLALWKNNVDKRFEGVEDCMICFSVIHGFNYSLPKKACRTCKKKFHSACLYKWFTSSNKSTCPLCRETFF
# T7 sequence (P31040 43-664): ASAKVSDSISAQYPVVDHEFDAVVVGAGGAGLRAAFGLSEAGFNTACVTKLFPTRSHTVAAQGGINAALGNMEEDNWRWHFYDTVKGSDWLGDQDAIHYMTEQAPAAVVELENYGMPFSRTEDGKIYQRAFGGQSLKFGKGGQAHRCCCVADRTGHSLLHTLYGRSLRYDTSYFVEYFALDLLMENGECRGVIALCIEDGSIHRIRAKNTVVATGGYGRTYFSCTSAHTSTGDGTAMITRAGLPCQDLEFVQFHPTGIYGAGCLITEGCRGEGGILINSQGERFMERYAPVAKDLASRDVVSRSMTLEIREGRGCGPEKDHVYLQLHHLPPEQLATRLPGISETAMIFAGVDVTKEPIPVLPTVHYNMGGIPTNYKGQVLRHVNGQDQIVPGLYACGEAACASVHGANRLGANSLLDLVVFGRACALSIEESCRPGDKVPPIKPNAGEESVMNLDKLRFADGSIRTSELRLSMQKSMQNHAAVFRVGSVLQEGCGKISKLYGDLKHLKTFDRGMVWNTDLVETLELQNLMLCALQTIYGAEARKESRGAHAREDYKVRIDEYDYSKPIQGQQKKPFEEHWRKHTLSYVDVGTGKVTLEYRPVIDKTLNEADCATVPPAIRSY
# T3 sequence (P68366 whole entry): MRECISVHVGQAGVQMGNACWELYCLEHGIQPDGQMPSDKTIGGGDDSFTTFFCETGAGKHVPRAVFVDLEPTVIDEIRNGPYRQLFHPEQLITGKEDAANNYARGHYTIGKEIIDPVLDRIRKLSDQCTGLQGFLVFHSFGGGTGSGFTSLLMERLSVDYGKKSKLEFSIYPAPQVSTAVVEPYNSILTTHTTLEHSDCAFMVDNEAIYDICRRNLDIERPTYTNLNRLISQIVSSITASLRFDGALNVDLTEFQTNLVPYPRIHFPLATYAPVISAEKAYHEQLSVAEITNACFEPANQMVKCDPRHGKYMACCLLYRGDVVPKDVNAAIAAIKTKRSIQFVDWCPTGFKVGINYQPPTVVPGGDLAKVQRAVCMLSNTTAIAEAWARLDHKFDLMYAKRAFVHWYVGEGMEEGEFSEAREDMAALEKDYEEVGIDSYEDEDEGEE
# T1 sequence (P25705 44-553): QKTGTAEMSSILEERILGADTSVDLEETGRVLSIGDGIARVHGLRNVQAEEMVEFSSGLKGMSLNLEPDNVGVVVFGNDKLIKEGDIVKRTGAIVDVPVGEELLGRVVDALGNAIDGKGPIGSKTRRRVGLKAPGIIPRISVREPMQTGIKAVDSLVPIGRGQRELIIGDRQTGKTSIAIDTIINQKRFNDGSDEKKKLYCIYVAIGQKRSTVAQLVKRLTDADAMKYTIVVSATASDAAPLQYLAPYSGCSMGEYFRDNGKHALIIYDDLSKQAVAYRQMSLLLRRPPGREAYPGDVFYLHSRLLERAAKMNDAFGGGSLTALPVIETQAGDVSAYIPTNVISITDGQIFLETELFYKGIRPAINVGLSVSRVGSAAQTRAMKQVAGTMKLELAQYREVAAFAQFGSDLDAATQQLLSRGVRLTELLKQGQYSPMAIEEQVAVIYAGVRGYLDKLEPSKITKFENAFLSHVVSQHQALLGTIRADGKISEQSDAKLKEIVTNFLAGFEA
SMILES,"fold changes relative to vehicle control ([1]; HeLa, captured protein ATP5A1)","fold changes relative to vehicle control [2, 10]","fold changes relative to vehicle control ([3]; HeLa, protein TUBA4A)","fold changes relative to vehicle control ([4]; HeLa, protein PTPLAD1)","fold changes relative to vehicle control ([5]; HeLa, captured protein RNF160)","fold changes relative to vehicle control ([6]; protein WARS, HeLa)","fold changes relative to vehicle control ([7]; HeLa, captured protein SDHA)","fold changes relative to vehicle control ([8]; HeLa, protein XPOT)","fold changes relative to vehicle control ([9]; HeLa, protein CHCHD3)","fold changes relative to vehicle control ([1]; HeLa, protein ATP5A1)","fold changes relative to vehicle control ([2]; HeLa, protein ANAPC1)","fold changes relative to vehicle control ([3]; captured protein TUBA4A, HeLa)","fold changes relative to vehicle control ([4]; captured protein PTPLAD1, HeLa)","fold changes relative to vehicle control ([5]; captured protein RNF160, HeLa)","fold changes relative to vehicle control ([7]; protein SDHA, HeLa)","fold changes relative to vehicle control ([9]; captured protein CHCHD3, HeLa)",further results
"Nc1nc2c(c(=O)[nH]1)N(C=O)C(CNc1ccc(C(=O)N[C@@H](CCC(=O)O)C(=O)O)cc1)CN2 (stereo partly drawn) [LEU, leucovorin]",0.99,1.09,0.9,0.97,1.1,0.95,1,0.94,0.92,–,–,–,–,–,–,–,–
"Nc1nc2[nH]cc(CCc3ccc(C(=O)N[C@@H](CCC(=O)O)C(=O)O)cc3)c2c(=O)[nH]1 [PTX, pemetrexed]",–,–,–,–,–,–,–,–,–,–,–,–,–,–,–,–,fold changes relative to vehicle control [1]: 0.94; fold changes relative to vehicle control [2]: 1.1; fold changes relative to vehicle control [3]: 0.83; fold changes relative to vehicle control [4]: 1; fold changes relative to vehicle control [5]: 1.09; fold changes relative to vehicle control [6]: 1.02; fold changes relative to vehicle control [7]: 0.97; fold changes relative to vehicle control [8]: 0.84; fold changes relative to vehicle control [9]: 0.98
CCCCCCOc1ccc(Cc2cnc(N)nc2N)cc1 [compound 1],–,–,–,–,–,0.96,–,0.95,–,1,1.05,0.95,1.06,1.01,1.19,0.93,–
CCCCCCOc1cccc(Cc2cnc(N)nc2N)c1 [compound 2],–,–,–,–,–,1.71,–,1.02,–,0.97,1.15,0.88,1.02,1.08,1.2,1.08,–
Nc1nc2cccc(-c3ccccc3)c2n1Cc1ccc(Cl)c(Cl)c1 [compound 3],–,–,–,–,–,0.9,–,1.08,–,0.87,1.21,1.01,2.73,1.13,1.02,1.02,–
NCCOCCOCC(=O)Nc1nc2ncc(CNc3ccc(C(=O)NC(CCC(=O)O)C(=O)O)cc3)nc2c(=O)[nH]1 (stereo not drawn) [compound 6],0.95,1.1,0.98,1.04,1.17,1.19,1.06,0.94,1,–,–,–,–,–,–,–,–
NCCCNc1ccc(C(=O)NC(CCC(=O)O)C(=O)O)cc1 (stereo not drawn) [compound 7],0.99,1.18,0.99,1.05,1.17,0.98,0.92,0.99,0.99,–,–,–,–,–,–,–,–
